The record followed here is ChEMBL document CHEMBL1130708, “Cytotoxic cycloartane-type triterpenes from Combretum quadrangulare” (1998).

The structures appear in SMILES notation.

The nature of this assay: Compound was tested for cytotoxic activity against murine colon 26-L5 carcinoma cells. The assay is classed as functional. The following applies: Mus musculus; read-out: ED50 (the source's name).
In the case of `C=C(CC[C@@H](C)[C@H]1CC[C@@]2(C)[C@@H]3CC[C@H]4[C@](C)(C(=O)O)[C@@H](O)CC[C@@]45C[C@@]35CC[C@]12C)C(C)C`, the EC50 is 62.4 µM.

Consider `C=C(CC[C@@H](C)[C@H]1CC[C@@]2(C)[C@@H]3CC[C@H]4[C@](C)(C(=O)O)[C@@H](O)CC(=O)[C@@]45C[C@@]35CC[C@]12C)C(C)C`, for which the EC50 was found to be 58.6 µM.

`C=C(CC[C@@H](C)[C@H]1CC[C@@]2(C)[C@@H]3CC[C@H]4[C@](C)(C(=O)O)[C@@H](O)C[C@H](OC(C)=O)[C@@]45C[C@@]35CC[C@]12C)C(C)C`: the EC50 was 57.6 µM.

Regarding `COC(=O)[C@]1(C)[C@@H](O)C[C@H](O)[C@]23C[C@]24CC[C@]2(C)[C@@H]([C@H](C=O)C/C=C/C(C)(C)O)CC[C@@]2(C)[C@@H]4CC[C@@H]13`, the EC50 worked out at 43.8 µM.

For `C=C(C)[C@@H]1CC[C@H]([C@H]2CC[C@@]3(C)[C@@H]4CC[C@H]5[C@](C)(C(=O)OC)[C@@H](O)C[C@H](O)[C@@]56C[C@@]46CC[C@]23C)[C@@H](OC)O1`, the EC50 turned out to be 18.1 µM.

Consider `C=C(CC[C@@H](C)[C@H]1CC[C@@]2(C)[C@@H]3CC[C@H]4[C@](C)(C(=O)OC)[C@@H](OC(C)=O)C[C@@H]5O[C@H](C[C@]12C)[C@]31C[C@]541)C(C)C`, for which the EC50 is 77.8 µM.

On to `C=C(CC[C@@H](C)[C@H]1CC[C@@]2(C)[C@@H]3CC[C@H]4[C@](C)(C(=O)O)[C@@H](O)C[C@H](O)[C@@]45C[C@@]35CC[C@]12C)C(C)C`, for which the EC50 was determined as 49.6 µM.

For the molecule `COC(=O)[C@]1(C)[C@@H](O)C[C@H](O)[C@]23C[C@]24CC[C@]2(C)[C@@H]([C@H](C=O)C/C=C/C(C)(C)OO)CC[C@@]2(C)[C@@H]4CC[C@@H]13`, the EC50 amounted to 9.54 µM.

With `C=C(CC[C@@H](C)[C@H]1CC[C@@]2(C)[C@@H]3CC[C@H]4[C@](C)(C(=O)OC)[C@@H](O)C[C@@H]5O[C@H](C[C@]12C)[C@]31C[C@]541)C(C)C`, the EC50 amounted to 5.42 µM.

As to `C=C(CC[C@@H](C)[C@H]1CC[C@@]2(C)[C@@H]3CC[C@H]4[C@](C)(C(=O)O)[C@@H](OC(C)=O)C[C@H](OC(C)=O)[C@@]45C[C@@]35CC[C@]12C)C(C)C`, the EC50 came out at 52.5 µM.
